Source: patent US20120040378A1, “Meprobromate Immunoassay” (RANDOX LABORATORIES LIMITED, priority 2010, published 2012)
Values after ≈ are worked out from the molar mass of the structure shown.

Key:
[1] = test system: Ig fractions of the antisera raised to Immunogen 4; assay: Competitive ELISA with antibodies raised to Immunogen 4 (Randox immunoassay of the invention); type: binding, sheep; conditions: for % CR: based on 100% specificity to meprobamate; for CR (cross-reactivity): relative to meprobamate = 100%
Description: An aqueous solution of Immunogen 4 was formulated with Freund's Complete Adjuvant (FCA) to form an emulsion consisting of 2 mg/ml immunogen in 50% (v/v) FCA. Three sheep were immunised with this emulsion (1° immunisation), 0.25 ml being intramuscularly injected at each of four sites in the rump of each animal. Subsequent immunizations (boosts) contained 1 mg/ml immunogen. All boosts were emulsified in 50% (v/v) Freund's Incomplete Adjuvant (FIA) and were administered in the same manner as the 1° immunisation, at monthly intervals for 1 year. Blood sampling took place 7 to 14 days after each boost. Each sample was processed to produce antiserum, which was further purified by caprylic acid and ammonium sulfate precipitation to yield an immunoglobulin (Ig) fraction. The Ig fraction was evaluated by competitive ELISA microtiter plate assay, as described in Example 16.
The wells of an enhanced binding 96 well polystyrene microtiter plate were coated with a mixture of the Ig fractions of the antisera raised to Immunogen 4, diluted in 10 mM Tris, pH8.5 (125 μl/well). The appropriate antibody coating dilution was determined using standard ELISA checkerboard techniques. The plate was incubated for 2 hours at 37° C., washed 4 times with Tris buffered saline containing Tween 20 (TBST) and tapped dry. Standard solutions of meprobamate, carisoprodol and mebutamate were prepared in TBST at 0, 0.1, 1.0, 5, 10, 25, 50 and 100 ng/ml, and 50 μl of each was added to the appropriate wells.
The conjugate prepared in Example 14 diluted in Tris buffer (pH 7.2) containing EDTA, D-mannitol, sucrose, thimerosal and BSA, was added to each of the wells. The appropriate dilution of conjugate was also determined using standard ELISA checkerboard techniques. The plate was incubated at 25° C. for 1 hour. Excess unbound conjugate was removed by washing 6 times over a 10 minute period with TBST. 125 μl of tetramethylbenzidine (TMB) substrate solution was added to each well of the plate that was then incubated for 20 minutes in the dark at room temperature. The reaction was terminated by addition of 125 μl 0.2M H2SO4 to each well. The absorbance was then measured at 450 nm using a microtiter plate reader.

[2] = test system: carisoprodol-specific antibody raised from Immunogen 2; assay: Immunoassay with carisoprodol-specific antibody raised from Immunogen 2 (Table 1); type: binding; conditions: Table 1, antibody raised from Immunogen 2 as titled
[3] = test system: Immunalysis immunoassay antibody; conditions: Table 2, Immunalysis; data from Robertson and Marinetti, 2003; cited from earlier work
[4] = test system: IDS immunoassay antibody; conditions: Table 2, IDS commercial immunoassay; cited from earlier work
[5] = cited from earlier work
[6] = Table 2, Randox immunoassay, concentration producing 50% B/B0
[7] = competitive ELISA, Hapten-B-HRP conjugate, absorbance 450 nm, standard concentration producing 50% B/B0

Row | Compound | % CR ([1]; Table 2, Randox immunoassay) | IC50 [1, 6] | IC50 [1, 7] | CR (cross-reactivity) ([1]; competitive ELISA) | % CR [2] | IC50 [2] | % CR [3] | IC50 [3] | % CR [4] | IC50 [4] | serum half-life ([5]; serum) | time detectable in serum ([5]; serum, not detectable beyond this time (Olsen et al 1994)) | excreted unchanged in urine ([5]; single orally administered carisoprodol tablet (350 mg)) | plasma half-life ([5]; plasma) | excreted unchanged in the urine ([5]; urine)
1 | CCCC(C)(COC(N)=O)COC(=O)NC(C)C (centres unmarked) [carisoprodol] | 57% | 0.015 µg/mL | 0.01515 µg/mL | 57% | 57% | 0.015 µg/mL (≈ 0.0576 µM) | 100% | 0.025 µg/mL (≈ 0.096 µM) | 100% | 0.0006 µg/mL (≈ 0.0023 µM) | under 2 hours | ≤ 12 h | less than 1% |  | 
2 | CCCC(C)(COC(N)=O)COC(N)=O [meprobamate] | 100% | 0.008 µg/mL | 0.00864 µg/mL | 100% | 100% | 0.008 µg/mL (≈ 0.0367 µM) | 19% | 0.132 µg/mL (≈ 0.605 µM) | <0.01% | >6 µg/mL |  |  |  | 6 to 16 h | 10-12%
3 | CCC(C)C(C)(COC(N)=O)COC(N)=O (centres unmarked) [mebutamate] |  |  |  | 7% |  |  |  |  |  |  |  |  |  |  | 
